Assay results taken from patent US5932709A (University of Michigan, priority 1997, dated 1999).
Converted amounts (≈) assume the structure as drawn.

Columns and labels:
murine B16 melanoma = test: Murine B16 melanoma model in vivo; design: species or system mouse (B6D2F1); settings: for Survivors: 60-day
Experimental: 1) Murine B16 Melanoma Model
For the B16 melanoma model, the following procedure was used. B6D2F1 mice receive i.p. inocula of B16 murine melanoma brei prepared from B16 tumors growing s.c. in mice (day 0). […] If dosing information for agents is not available, the maximum tolerated dose (MTD) is determined in initial dose finding experiments in non-tumored mice.
The mean survival times of all groups are calculated, and results are expressed as mean survival of treated mice/mean survival of control mice (T/C)×100%. A T/C value of 150 means that the mice in the treated group lived 50% longer than those of the control group; this is sometimes referred to as the increase in life span or ILS value.
Mice that survive for 60 days are considered long-term survivors, or cures, in the B16 model. The universally accepted cut-off for activity in this model, which has been for years by the National Cancer Institute, is T/C=125. Conventional use of B16 over the years has set the following levels of activity: T/C<125, no activity, T/C=125-150, weak activity; T/C=150-200, modest activity; T/C=200-300, high activity; T/C>300, with long term survivors; excellent, curative activity.

[1] = test system: P388 murine leukemia cells; test: MTT growth inhibition, P388; format: cell-based; settings: Mus musculus, 72 h, 3 days, read-out: Growth Inhibitory Activity IC50
Experimental: (§1) Camptothecin was used as a control to test the anti-cancer efficacy of the novel camptothecin analogs of the present invention.
(§2) Murine B16 melanoma cell line was grown in RPMI 1640 medium supplemented with 10% heat-inactivated fetal bovine serum, 2 mM L-glutamine, 50 units/mL penicillin, 50 μg/mL streptomycin, 25 μg/mL gentamicin, 0.75% sodium bicarbonate 10 mM HEPES buffer (pH 7.4), and 0.06 mg/mL AntiPPLO. Murine P388 leukemic cell line and human HT-29 colon adenocarcinoma line were maintained in RPMI 1640 medium supplemented with 10% heat-inactivated fetal bovine serum. […] MCF-7M human breast adenocarcinoma was maintained in IMEM supplemented with 5% non heat-inactivated fetal bovine serum and 1 nM insulin.
(§3) [See "Rapid Colorimetric Assay For Cellular Growth And Survival: Application To Proliferation And Cytotoxicity Assays," J. Immun. Meth. 65:55 (1983)]. The assay utilizes a tetrazolium salt to quantitatively measure mammalian cell survival and proliferation by colorimetric methods. In particular, MTT, a pale yellow compound with minimal absorbance, is incubated with cancerous cells in addition to (or in the absence of) a particular camptothecin analog. Living cells with active mitochondrial enzymes metabolize the MTT into a dark blue/purple formazan product with high absorbance. The exact procedure used to test the camptothecin analogs of the present invention is described below.
(§4) Exponentially growing cells (1-2×10^3 cells, unless specified otherwise) in 0.1 mL medium were seeded on day 0 in a 96-well microtiter plate. On day 1, 0.1 mL aliquots of medium containing graded concentrations of test analogs were added to the cell plates. After incubation at 37° C. in a humidified incubator for 3 days (P388, P388/CPT, B16) or 6 days (HT-29, MCF-7M), the plates were centrifuged briefly and 100 μL of the growth medium was removed. Cell cultures were incubated with 50 μL of 3-(4,5-dimethylthiazol-2-yl)-2,5-diphenyl-tetrazolium bromide [MTT, 1 mg/mL in Dulbecco's phosphate buffered saline (PBS)] for 4 hr at 37° C. The resulting purple formazan precipitate was solubilized with 200 μL of 0.04 N HCl in isopropyl alcohol. Absorbance was monitored in a BioRad Model 3550 Microplate Reader at a test wavelength of 570 nm and a reference wavelength of 630 nm. The absorbance is transferred to a PC 486 computer. The IC50 values were determined by a computer program (EZ-ED50) that fits all of the data to the following four-parameter logistic equation:
(§5) Y=(Amax -Amin)/(1+[X/IC^50 ])^n +Amin
(§6) where Amax is the absorbance of control cells, Amin is the absorbance of cells in the presence of highest agent concentration, IC^50 is the concentration of agent that inhibits the cell growth by 50% of control cells (based on the absorbance) and n is the slope of the curve.

[2] = test system: HT-29 human colon adenocarcinoma cells; test: MTT growth inhibition, HT-29; format: cell-based; settings: 144 h, HT-29, MTT, 6 days, read-out: Growth Inhibitory Activity IC50
Experimental: as §1, §2, §3, §4, §5, §6

[3] = test system: MCF-7 human breast tumor cells; test: MTT growth inhibition, MCF-7; format: cell-based; settings: MCF7, 144 h, MCF-7, MTT, 6 days, read-out: Growth Inhibitory Activity IC50
Experimental: as §1, §2, §3, §4, §5, §6

[4] = test system: B16 murine melanoma cells; test: MTT growth inhibition, B16; format: cell-based; settings: Mus musculus, 72 h, 3 days, read-out: Growth Inhibitory Activity IC50
Experimental: as §1, §2, §3, §4, §5, §6

[5] = Water solubility in phosphate buffered saline (spectrophotometric assay); format: physicochemical; settings: for solubility at 24 h: aqueous buffer, water solubility, PBS pH 7.5, room temperature; for water solubility improvement: compared to camptothecin
Experimental: Approximately 5 mg of test compound was suspended in 1 mL of PBS in a 1.5 mL cryovial. The suspensions were mixed continuously on a Thermolyne vari-mix at room temperature for 24 hr. The suspensions were then centrifuged at 14000×g for 2 minutes to separate the undissolved materials. The supernatant fluids were diluted appropriately with PBS and the ultraviolet spectrums were recorded on a Beckman 640 DU spectrophotometer. For comparison, a standard stock (2 mg/mL in DMSO) solution was prepared for each analog. The ultraviolet spectrum of a 20 of 40 μg/mL standard working solution was measured. The water solubility of each analog was calculated based on the following formula:
Cunknown =Cstandard ×(Aunknown
where Cunknown is the concentration of the unknown solution to be determined; Cstandard is the concentration of the standard working solution (either 20 or 40 μg/mL); Astandard is the absorbance at 350 nm of the standard working solution; DDilution is the appropriate dilution factor used so that the absorbance of the unknown working solution is within the dynamic range of the UV spectrophotometer (less than 2 absorbance units).

[6] = test system: P388/CPT CPT-resistant murine leukemia cells; test: MTT growth inhibition, P388/CPT; format: cell-based; settings: Mus musculus, 72 h, 3 days, read-out: Growth Inhibitory Activity IC50
Experimental: as §1, §2, §3, §4, §5, §6

Row | Structure (SMILES) | cures (murine B16 melanoma; 20 mg/kg) | T/C (mean survival treated/control) (murine B16 melanoma; 20 mg/kg i.p. daily×5) | Tox Deaths (murine B16 melanoma; 20 mg/kg i.p. daily×5) | ΔWeight (%) (murine B16 melanoma; 20 mg/kg i.p. daily×5) | Survivors (murine B16 melanoma; 20 mg/kg i.p. daily×5) | IC50 [1] | IC50 [2] | IC50 [3] | IC50 [4] | solubility at 24 h [5] | water solubility improvement [5] | IC50 [6] | 60-day survivors (cures) (murine B16 melanoma; 100 mg/kg) | T/C (mean survival treated/control) (murine B16 melanoma; 100 mg/kg i.p. daily×5) | Tox Deaths (murine B16 melanoma; 100 mg/kg i.p. daily×5) | ΔWeight (%) (murine B16 melanoma; 100 mg/kg i.p. daily×5) | Survivors (murine B16 melanoma; 100 mg/kg i.p. daily×5) | further results
1 | CC[C@@]1(O)C(=O)OCc2c1cc1n(c2=O)Cc2c-1nc1ccccc1c2CO[C@@H]1C=C[C@H](O)[C@@H](CO)O1 [HAR7, 7-[2,3-dideoxy-α-D-erythro-hex-2-enopyranosyl]-oxymethylcamptothecin] | no cures | 191% | 0/10 | -0.1% | 0/10 | 0.088 µg/mL (≈ 0.174 µM) | 0.031 µg/mL (≈ 0.0612 µM) | 0.0064 µg/mL (≈ 0.0126 µM) | 0.173 µg/mL (≈ 0.342 µM) | 62 µg/mL (≈ 122 µM) | 16 fold | 18.7 µg/mL (≈ 36.9 µM) |  |  |  |  |  | T/C (mean survival treated/control) (murine B16 melanoma; 40 mg/kg i.p. daily×5): 205%; Tox Deaths (murine B16 melanoma; 40 mg/kg i.p. daily×5): 0/10; ΔWeight (%) (murine B16 melanoma; 40 mg/kg i.p. daily×5): -7.9%; Survivors (murine B16 melanoma; 40 mg/kg i.p. daily×5): 1/10; 60-day survivors (murine B16 melanoma; dose not stated): one
2 | CC[C@@]1(O)C(=O)OCc2c1cc1n(c2=O)Cc2c-1nc1ccccc1c2CO[C@@H]1C=C[C@H](O[C@H]2O[C@H](CO)[C@@H](O)[C@H](O)[C@H]2O)[C@@H](CO)O1 [HAR6, 7-[4-O-(α-D-glucopyranosyl)-2,3-dideoxy-α-D-erythro-hex-2-enopyranosyl]-oxymethylcamptothecin] |  |  |  |  |  | 1.68 µg/mL (≈ 2.51 µM) | 0.476 µg/mL (≈ 0.712 µM) | 0.111 µg/mL (≈ 0.166 µM) | 2.43 µg/mL (≈ 3.63 µM) | 1620 µg/mL (≈ 2420 µM) | 80 fold | 28.4 µg/mL (≈ 42.5 µM) | no cures | 184% | 1/10 | -13.8% | 0/10 | drug-related deaths (murine B16 melanoma; 100 mg/kg): one; weight loss (murine B16 melanoma; 100 mg/kg i.p. five day schedule): approximately 14%; T/C (mean survival treated/control) (murine B16 melanoma; 150 mg/kg i.p. daily×5): 185%; Tox Deaths (murine B16 melanoma; 150 mg/kg i.p. daily×5): 7/10; ΔWeight (%) (murine B16 melanoma; 150 mg/kg i.p. daily×5): -27.2%; Survivors (murine B16 melanoma; 150 mg/kg i.p. daily×5): 0/10
3 | CC[C@@]1(O)C(=O)OCc2c1cc1n(c2=O)Cc2c-1nc1ccccc1c2CO[C@@H]1C=C[C@H](O[C@H]2O[C@H](COC(C)=O)[C@@H](OC(C)=O)[C@H](OC(C)=O)[C@H]2OC(C)=O)[C@@H](COC(C)=O)O1 [HAR5, 7-[6-O-acetyl-4-O-(2,3,4,6-tetra-O-acetyl-α-D-glucopyranosyl)-2,3-dideoxy-α-D-erythro-hex-2-enopyranosyl]oxymethylcamptothecin] |  |  |  |  |  | 0.362 µg/mL (≈ 0.412 µM) | 0.105 µg/mL (≈ 0.119 µM) | 0.01 µg/mL (≈ 0.0114 µM) | 0.43 µg/mL (≈ 0.489 µM) | 35 µg/mL (≈ 39.8 µM) |  | 21.2 µg/mL (≈ 24.1 µM) | three | 239% | 0/10 | +9.0% | 3/10 | 60-day survivors (cures) (murine B16 melanoma; 200 mg/kg): three; T/C (mean survival treated/control) (murine B16 melanoma; 200 mg/kg i.p. daily×5): 232%; Tox Deaths (murine B16 melanoma; 200 mg/kg i.p. daily×5): 0/10; ΔWeight (%) (murine B16 melanoma; 200 mg/kg i.p. daily×5): +5.9%; Survivors (murine B16 melanoma; 200 mg/kg i.p. daily×5): 3/10; efficacy vs. B16 (murine B16 melanoma; among the four analogs, in words): highest efficacy vs. B16
4 | CC[C@@]1(O)C(=O)OCc2c1cc1n(c2=O)Cc2c-1nc1ccccc1c2CO[C@@H]1C=C[C@H](OC(C)=O)[C@@H](COC(C)=O)O1 [HAR4, 7-[4,6-di-O-acetyl-2,3-dideoxy-α-D-erythro-hex-2-enopyranosyl]oxymethylcamptothecin] | one | 212% | 1/10 | -15.6% | 1/10 | 0.03 µg/mL (≈ 0.0508 µM) | 0.011 µg/mL (≈ 0.0186 µM) | 0.0027 µg/mL (≈ 0.00457 µM) | 0.026 µg/mL (≈ 0.044 µM) | 155 µg/mL (≈ 262 µM) |  | 7.04 µg/mL (≈ 11.9 µM) |  |  |  |  |  | cures (murine B16 melanoma; 10 mg/kg): one; T/C (mean survival treated/control) (murine B16 melanoma; 10 mg/kg i.p. daily×5): 189%; Tox Deaths (murine B16 melanoma; 10 mg/kg i.p. daily×5): 0/10; ΔWeight (%) (murine B16 melanoma; 10 mg/kg i.p. daily×5): +6.6%; Survivors (murine B16 melanoma; 10 mg/kg i.p. daily×5): 1/10; toxic deaths (murine B16 melanoma; high dose group): one
